# Data taken from US10864192B2, “Compositions and methods for inhibiting brain trauma-induced neurodegeneration and related conditions” (priority 2016, dated 2020).
# Where “and” joins values, the source holds several entries; their conditions need not be identical. Equal entries are not always repeated.
# Key:
# [1] = Plasma concentrations of phenserine and its metabolites in human plasma; format: in vivo
# Experimental: The relationship between pharmacokinetic and pharmacodynamics evaluated in FIG. 15 was evaluated in aged volunteers. A total of 32 subjects (60-80 years of age, 11 males/21 females) were screened and enrolled. All participants provided informed consent, the conduct of the study were approved and overseen by the local Review IRB.
# For pharmacokinetic (blood concentrations of primary drug and select metabolites) a dose […] additionally was evaluated.
# These were centrifuged within 15 min of collection, and stored in a freezer at −70° C. freezer in marked polypropylene tubes until analysis. Phenserine levels were quantified by liquid chromatography/mass spectrometry (LC/MS/MS). In brief, analyses were undertaken on Perkin-Elmer (PE, Norwalk, USA) high performance liquid chromatographic (HPLC) instrumentation. Compound separation was performed on a Phenomenex LUNA C18 column (5 μM, 2.0 mm×150 mm; Torrance, USA), with a Phenomenex guard column (2 mm×30 mm). The mobile phase was 60% acetonitrile (HPLC grade) plus 40% ammonium acetate (v/v) with a flow rate of 0.4 mL/min. […] Thereafter, 2 mL of tert-butyl methyl ether was added and the sample was mixed and flash frozen. The organic layer was decanted, dried under a stream of nitrogen and reconstituted into 250 μL of mobile phase. Of this, a 60 μL sample was then injected into the HPLC.
# [2] = Plasma concentrations of phenserine and its metabolites in beagle dog plasma; format: in vivo
# [3] = clinical
# Text: FIGS. 33-34 depict two graphs from an Excel spreadsheet. FIG. 33 is a linear plot of plasma level vs time and FIG. 34 is a semi-log plot of plasma conc. vs time.
# [4] = target: acetylcholinesterase (AChE) (Homo sapiens (Human), UniProt P22303); assay: RBC AChE inhibition after oral phenserine in humans; format: in vivo; conditions: 15 mg immediate release dose, TMax (1 hr)
# Experimental: For pharmacodynamics AChE inhibition analyses: erythrocyte AChE levels were evaluated in whole blood samples by using methods known in the art. Briefly, duplicate samples of freshly collected whole blood were analyzed. Cholinesterase activity, U/L, was detected at 37° C. using a differential pH procedure on a Eurochem CL-10 (Rome, Italy). The time-course of enzyme inhibition was determined for each subject by expressing each mean post-phenserine administration AChE concentration as a fraction of the mean pre-administration resting level of AChE within the same individual. This value was then subtracted from 1 and multiplied by 100% to provide percent AchE inhibition.
# [5] = test system: human peripheral blood mononuclear cells (PBMCs); assay: PHA-induced cytokine production in human PBMCs; format: cell-based; conditions: phenserine 100 nM to 10 μM, 24 hr, PHA 3 μg/mL
# Text: The detection limit for these assays is <1 pg/mL for IL-1beta and <3 pg/mL for IL-10. The intra- and inter-assay CV was <10%. All results are expressed in picograms per milliliter.
# [6] = test system: SH-SY5Y cells; assay: H2O2-induced oxidative stress in SH-SY5Y cells (MTS assay); format: cell-based, human; conditions: phenserine 10 and 30 μM, 100 μM H2O2, 24 hr
# [7] = test system: Sprague-Dawley rats; assay: Focal cerebral ischemia model (MCA ligation), pre-treatment; format: in vivo, rat
# Experimental: Briefly, Human neuroblastoma SH-SY5Y cells were incubated in oxygen-glucose deprivation and hypoxia using serum- and glucose-free media and 95% N2 and 5% CO2 for 5 minutes. Adult male Sprague-Dawley rats (250 to 350 g weight) were anesthetized with chloral hydrate (0.4 g/kg, intraperitoneally) and right middle cerebral artery (MCA) was ligated for 60 minutes. The core body temperature of animals was maintained at 37° C. throughout the procedure.
# [8] = test system: acetyl- and butyrylcholinesterase; assay: Cholinesterase inhibition in mice after the final dose; format: in vivo, mouse; conditions: 24 hours following the final dose
# Text: The same model of concussive head injury described above with respect to FIG. 7 was used in the experiments described below with respect to FIGS. 8 and 9. […] Previous studies of drug and metabolite concentrations have shown acetylcholinesterase inhibition to be present when any concentration of drug or metabolite have been detected. […] Drug and its metabolites have been shown undetectable when no anticholinesterase activities are present.
# [9] = test system: SH-SY5Y cells; assay: Cell proliferation of SH-SY5Y cells (MTS assay); format: cell-based, human; conditions: 30 uM, 24 hr
# Experimental: SHSYSY cells were exposed for 24 hr to 30 uM concentration of (−)- and (+)-phenserine. After 24 hr cell proliferation was determined by MTS assay. *P,0.05, **p,0.01, and ***p,0.001 compared to control samples without drug.
# [10] = Tolerability of immediate release phenserine in patients; format: in vivo, human; conditions: immediate release dose of 20 mg
# [11] = in vivo
# [12] = pre-treatment, brain and SH-SY5Y cells
# Sequence of acetylcholinesterase (AChE) (P22303 32-574 with tags or gaps limits assumed): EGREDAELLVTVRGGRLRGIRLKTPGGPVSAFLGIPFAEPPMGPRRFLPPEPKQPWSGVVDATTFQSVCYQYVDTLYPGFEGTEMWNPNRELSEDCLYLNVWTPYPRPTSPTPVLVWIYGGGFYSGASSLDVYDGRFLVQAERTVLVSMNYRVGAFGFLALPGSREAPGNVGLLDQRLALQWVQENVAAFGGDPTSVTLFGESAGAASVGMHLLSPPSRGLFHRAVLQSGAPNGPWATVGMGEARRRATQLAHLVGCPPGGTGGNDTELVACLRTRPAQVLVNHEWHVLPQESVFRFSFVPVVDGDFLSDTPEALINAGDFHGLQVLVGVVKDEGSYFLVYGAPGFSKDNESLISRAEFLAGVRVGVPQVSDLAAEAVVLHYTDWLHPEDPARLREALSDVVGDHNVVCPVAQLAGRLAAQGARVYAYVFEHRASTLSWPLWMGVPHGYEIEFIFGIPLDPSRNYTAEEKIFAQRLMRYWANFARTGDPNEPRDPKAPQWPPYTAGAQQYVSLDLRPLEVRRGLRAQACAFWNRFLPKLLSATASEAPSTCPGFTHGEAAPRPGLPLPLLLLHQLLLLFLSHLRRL
smiles,measurement,setting,value
"CN1CC[C@@]2(C)c3cc(OC(=O)Nc4ccccc4)ccc3N(C)[C@@H]12 [phenserine, (−)-phenylcarbamoyleseroline]",Average Plasma Concentrations,[1]; Hour 1,3.02 ng/mL
same,Average Plasma Concentrations,[1]; Hour 2,2.09 ng/mL
same,Average Plasma Concentrations,[1]; Hour 3,1.08 ng/mL
same,Average Plasma Concentrations,[1]; Hour 4,0.31 ng/mL
same,Average Plasma Concentrations,[2]; Hour 1,4.95 ng/mL
same,Average Plasma Concentrations,[2]; Hour 2,15.4 ng/mL
same,Average Plasma Concentrations,[2]; Hour 3,0.71 ng/mL
same,Average Plasma Concentrations,[2]; Hour 4,0.97 ng/mL
same,Cmax,"[3]; human, in vivo, 15 mg",3.02 ng/mL and 8.9 nM
same,expected plasma levels,[3]; targeted 30 mg/d or 60 mg/d in sustained release formulation,1.58 to 0.53 ng/ml
same,AChE inhibition in RBCs,[4],34%
same,PHA-induced anti-inflammatory IL-10 levels,[5],without impacting
same,PHA-induced elevation in pro-inflammatory IL-1β levels,[5],substantially mitigated
same,H2O2-mediated neuronal toxicity (cell viability),[6],significantly ameliorated
same,B-cell lymphoma 2 (Bcl-2) expression,[7]; pre-treatment,increased
same,body symmetry,[7]; pre-treatment,improved
same,brain-derived neurotrophic factor (BDNF) expression,[7]; pre-treatment,increased
same,cell death,[7]; pre-treatment,reduced
same,glial fibrillary acidic protein (GFAP) expression,[7]; pre-treatment,decreased
same,brain infarction area,[7]; pre-treatment twice daily prior to MCA occlusion,reduced
same,activated-caspase 3 levels,[7]; [12],decreased
same,amyloid precursor protein (APP) expression,[7]; [12],decreased
same,inhibition of acetyl- and butyrylcholinesterase,[8],no inhibition
same,cell proliferation (neurotrophic actions),[9],increasing cellular proliferation
same,negative consequences in patients,[10],"negative consequences (e.g., vomiting, diarrhea, nausea, etc.) have been observed"
same,Brain:Plasma Partitioning,[11],6.8-10:1
same,brain:blood partition,[11],approx. 8:1
